In ChEMBL document CHEMBL1139149, “Discovery of tertiary aminoacids as dual PPARalpha/gamma agonists-I” (Bioorg Med Chem Lett, 2007):
Active and inactive are the calls of the source. No cut-off for these calls is given here.

How the values were obtained:
[1] = biological target: T1, Peroxisome proliferator-activated receptor gamma (Homo sapiens, UniProt P37231); assay: (§1) Displacement of fluorescein labeled ligand from PPARgamma receptor by fluorescence polarization assay
T1 sequence (P37231 whole entry): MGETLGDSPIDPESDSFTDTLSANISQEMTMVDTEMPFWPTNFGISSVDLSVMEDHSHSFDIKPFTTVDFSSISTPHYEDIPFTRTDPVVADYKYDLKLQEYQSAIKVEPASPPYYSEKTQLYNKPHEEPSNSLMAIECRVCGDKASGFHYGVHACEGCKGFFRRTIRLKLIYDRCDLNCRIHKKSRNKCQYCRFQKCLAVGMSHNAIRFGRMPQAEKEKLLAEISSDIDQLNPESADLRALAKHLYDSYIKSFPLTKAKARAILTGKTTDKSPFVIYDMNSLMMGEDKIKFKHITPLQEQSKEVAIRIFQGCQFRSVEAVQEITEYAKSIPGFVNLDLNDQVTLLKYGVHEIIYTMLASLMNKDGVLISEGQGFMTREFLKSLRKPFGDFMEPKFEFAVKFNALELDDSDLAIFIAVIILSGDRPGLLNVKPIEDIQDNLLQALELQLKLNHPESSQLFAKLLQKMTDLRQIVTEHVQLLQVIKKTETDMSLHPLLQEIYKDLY

[2] = biological target: T2, Peroxisome proliferator-activated receptor alpha (Homo sapiens, UniProt Q07869); assay: Displacement of fluorescein labeled ligand from PPARalpha receptor by fluorescence polarization assay
T2 sequence (Q07869 whole entry): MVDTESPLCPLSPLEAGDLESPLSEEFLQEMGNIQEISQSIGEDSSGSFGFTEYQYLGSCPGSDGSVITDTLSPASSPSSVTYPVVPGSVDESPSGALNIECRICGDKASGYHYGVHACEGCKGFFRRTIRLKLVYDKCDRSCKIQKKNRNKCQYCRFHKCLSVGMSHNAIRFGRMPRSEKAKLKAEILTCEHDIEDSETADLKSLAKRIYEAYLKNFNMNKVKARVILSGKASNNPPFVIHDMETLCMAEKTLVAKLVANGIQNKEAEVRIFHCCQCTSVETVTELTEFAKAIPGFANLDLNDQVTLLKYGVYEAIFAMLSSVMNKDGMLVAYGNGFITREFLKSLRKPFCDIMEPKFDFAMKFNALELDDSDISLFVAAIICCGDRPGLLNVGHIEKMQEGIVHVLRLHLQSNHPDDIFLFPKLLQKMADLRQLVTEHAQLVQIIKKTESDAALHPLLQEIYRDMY

[3] = biological target: T2, Peroxisome proliferator-activated receptor alpha; assay: Agonist activity at PPARalpha receptor expressed in HEK293 cells by GAL4 transactivation assay; format: functional, cell-based
[4] = biological target: T3, Peroxisome proliferator-activated receptor alpha (Homo sapiens) (UniProt Q07869); assay: Intrinsic activity at PPARalpha receptor expressed in HEK293 cells at 1 uM by GAL4 transactivation assay relative to GW-2331; format: cell-based
T3 sequence (whole entry): T2 sequence (Q07869 whole entry)

[5] = biological target: T1, Peroxisome proliferator-activated receptor gamma
Description: Agonist activity at PPARgamma receptor expressed in HEK293 cells by GAL4 transactivation assay

[6] = Permeability from apical to basolateral side of Caco-2 cell membrane at pH 6.5; format: ADME, cell-based; details: human, Caco-2, pH 6.5; read-out: permeability
[7] = Metabolic stability in mouse liver microsomes after 10 mins; format: ADME, Microsome; details: read-out: Stability
Mus musculus [8] = assay: Antidiabetic activity in db/db mouse assessed as changes in triglyceride level at 10 mg/kg, po qd for 14 days; format: functional
Mus musculus [9] = assay: Antidiabetic activity in db/db mouse assessed as changes in glucose level at 10 mg/kg, po qd for 14 days; format: functional
Mus musculus [10] = assay: Antidiabetic activity in db/db mouse assessed as changes in free fatty acid level at 10 mg/kg, po qd for 14 days; format: functional
Mus musculus [11] = assay: Antidiabetic activity in db/db mouse assessed as changes in insulin level at 10 mg/kg, po qd for 14 days; format: functional
[12] = Permeability from apical to basolateral side of Caco-2 cell membrane at pH 5.5; format: ADME, cell-based; details: human, Caco-2, pH 5.5; read-out: permeability
[13] = Permeability from apical to basolateral side of Caco-2 cell membrane at pH 7.4; format: ADME, cell-based; details: human, Caco-2, pH 7.4; read-out: permeability
[14] = biological target: T4, Peroxisome proliferator-activated receptor gamma (Homo sapiens) (UniProt P37231); assay: as §1
T4 sequence (whole entry): T1 sequence (P37231 whole entry)

| Papp A→B [6] [×10⁻⁶ cm/s] | Activity [14] | Structure (SMILES) | IC50 [1] [nM] | IC50 [2] [nM] | EC50 [3] [nM] | Intrinsic activity [4] [%] | EC50 [5] [nM] | remaining at 10 min [7] [%] | Activity (Mus musculus [8]) [%] | Activity (Mus musculus [9]) [%] | Activity (Mus musculus [10]) [%] | Activity (Mus musculus [11]) [%] | Papp A→B [12] [×10⁻⁶ cm/s] | Papp A→B [13] [×10⁻⁶ cm/s] |
| --- | --- | --- | --- | --- | --- | --- | --- | --- | --- | --- | --- | --- | --- | --- |
|  |  | Cc1oc(-c2ccccc2)nc1CCOc1cccc(CN(CC(=O)O)Cc2cccc3ccccc23)c1 | 67 | 34 | 5 | 85 | 36 |  |  |  |  |  |  |  |
| < 1.5 |  | Cc1oc(-c2ccccc2)nc1CCOc1ccc(CN(CC(=O)O)Cc2ccc(Oc3ccccc3)cc2)cc1 | 227 | 970 | 35 | 59 | 52 | 46 |  |  |  |  |  |  |
|  |  | COc1ccc(OC(=O)N(CC(=O)O)Cc2ccc(OCCc3nc(-c4ccccc4)oc3C)cc2)cc1 [MURAGLITAZAR] |  |  |  |  |  |  | -50 | -50 | -69 | -67 |  |  |
|  |  | CCCCCCCN(CCc1ccc(O[C@@](C)(CC)C(=O)O)cc1)C(=O)Nc1ccc(F)cc1F | 670 | 348 | 71 | 79 | 249 |  |  |  |  |  |  |  |
|  |  | Cc1oc(-c2ccccc2)nc1CCOc1cccc(CN(CC(=O)O)Cc2cc3ccccc3[nH]2)c1 | 540 | 246 | 197 | 62 | 759 |  |  |  |  |  |  |  |
|  |  | Cc1oc(-c2ccccc2)nc1CCOc1ccc(C[C@H](Nc2ccccc2C(=O)c2ccccc2)C(=O)O)cc1 |  |  |  | 59 |  |  |  |  |  |  |  |  |
|  |  | Cc1oc(-c2ccccc2)nc1CCOc1ccc(CN(CC(=O)O)Cc2ccccc2)cc1 | 1770 |  | 4020 | 24 | 3600 |  |  |  |  |  |  |  |
|  |  | Cc1oc(-c2ccccc2)nc1CCOc1ccc(CN(CC(=O)O)Cc2cccc(Oc3ccccc3)c2)cc1 | 480 | 88 | 4 | 107 | 391 |  |  |  |  |  |  |  |
|  |  | Cc1oc(-c2ccccc2)nc1CCOc1cccc(CN(CC(=O)O)Cc2ccc(OCc3ccccc3)cc2)c1 | 183 | 387 | 324 | 56 | 412 |  |  |  |  |  |  |  |
|  |  | Cc1oc(-c2ccccc2)nc1CCOc1cccc(CN(CC(=O)O)Cc2ccccc2)c1 | 240 | 90 | 22 | 72 | 295 | 84 | -29 | -31 | -22 | -40 | 25.1 | 22.5 |
|  | inactive | CCC(CC)CN(CC(=O)O)Cc1ccc(OCCc2nc(-c3ccccc3)oc2C)cc1 |  |  |  | 8 | 1800 |  |  |  |  |  |  |  |
|  |  | Cc1oc(-c2ccccc2)nc1CCOc1ccc(CN(CC(=O)O)Cc2ccc3c(c2)OCO3)cc1 | 3290 | 1800 | 128 | 77 | 307 |  |  |  |  |  |  |  |
|  |  | Cc1oc(-c2ccccc2)nc1CCOc1ccc(CN(CC(=O)O)Cc2ccccn2)cc1 | 2900 |  | 692 | 12 | 230 |  |  |  |  |  |  |  |
|  |  | CCCCCCCN(CC(=O)O)Cc1ccc(OCCc2nc(-c3ccccc3)oc2C)cc1 | 2300 | 1050 | 180 | 63 | 136 |  |  |  |  |  |  |  |
|  |  | Cc1oc(-c2ccccc2)nc1CCOc1cccc(CN(CCCc2ccccc2)CC(=O)O)c1 | 773 | 51 | 47 | 62 | 901 |  |  |  |  |  |  |  |
|  |  | Cc1oc(-c2ccccc2)nc1CCOc1ccc(CN(CCOCc2ccccc2)CC(=O)O)cc1 | 4560 | 1800 | 726 | 56 | 1180 |  |  |  |  |  |  |  |
|  |  | Cc1oc(-c2ccccc2)nc1CCOc1ccc(CN(CC(=O)O)Cc2ccc(OCc3ccccc3)cc2)cc1 | 284 | 1050 | 189 | 106 | 221 |  |  |  |  |  |  |  |
|  |  | Cc1oc(-c2ccccc2)nc1CCOc1cccc(CN(CC(=O)O)Cc2cccc(Oc3ccccc3)c2)c1 | 110 | 83 | 62 | 95 | 359 |  |  |  |  |  |  |  |
|  |  | Cc1oc(-c2ccccc2)nc1CCOc1ccc(CN(CC(=O)O)Cc2ccc(-c3ccccc3Cl)o2)cc1 | 280 | 1800 | 871 | 55 | 267 |  |  |  |  |  |  |  |
|  |  | Cc1oc(-c2ccccc2)nc1CCOc1cccc(CN(CCc2ccccc2)CC(=O)O)c1 | 134 | 75 | 44 | 82 | 108 |  |  |  |  |  |  |  |
|  |  | Cc1oc(-c2ccccc2)nc1CCOc1cccc(CN(CC(=O)O)Cc2ccc3ccccc3c2)c1 | 145 | 149 | 313 | 65 | 1390 |  |  |  |  |  |  |  |
|  |  | Cc1oc(-c2ccccc2)nc1CCOc1ccc(CN(CC(=O)O)Cc2ccc3ccccc3c2)cc1 | 1210 | 680 | 618 | 39 | 1210 |  |  |  |  |  |  |  |
|  |  | Cc1oc(-c2ccccc2)nc1CCOc1ccc(CN(CC(=O)O)Cc2cccc3ccccc23)cc1 | 767 | 140 | 21 | 90 | 840 |  |  |  |  |  |  |  |
|  |  | Cc1oc(-c2ccccc2)nc1CCOc1cccc(CN(CC(=O)O)Cc2ccc(Oc3ccccc3)cc2)c1 | 230 | 110 | 30 | 67 | 67 |  |  |  |  |  |  |  |
